Results as given in patent US5202315A, “Cephalosporin compounds” (Lucky, Ltd., priority 1989, dated 1993).
Converted amounts (≈) assume the structure as drawn. Where two headings read alike, the source gives them in different places.

Columns and labels:
[1] = test system: Acinetobacter calcoaceticus ATCC 15473; assay: Antibacterial activity, MIC; type: cell-based; details: ATCC15473, ATCC 15473, agar two-fold dilution, 37° C., 20 hours, read-out: MIC
Procedure, shortened: (§1)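 Agar two-fold dilution method: compound serially diluted two-fold in Mueller-Hinton agar, spotted with 2 μl of a 10^7 CFU/ml inoculum of each standard strain, then incubated at 37 °C for 20 h.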

[2] = test system: Bacillus cereus ATCC 11778; assay: Antibacterial activity, MIC; type: cell-based; details: ATCC11778, ATCC 11778, agar two-fold dilution, 37° C., 20 hours, read-out: MIC
Procedure, shortened: as §1

[3] = test system: Bacillus megaterium ATCC 9885; assay: Antibacterial activity, MIC; type: cell-based; details: Priestia megaterium, ATCC9885; ATCC 9885; agar two-fold dilution, 37° C., 20 hours; read-out: MIC
Procedure, shortened: as §1

[4] = test system: Citrobacter freundii ATCC 8090; assay: Antibacterial activity, MIC; type: cell-based; details: ATCC8090, ATCC 8090, agar two-fold dilution, 37° C., 20 hours, read-out: MIC
Procedure, shortened: as §1

[5] = test system: Enterobacter aerogenes ATCC 29751; assay: Antibacterial activity, MIC; type: cell-based; details: Klebsiella aerogenes, ATCC29751; ATCC 29751; agar two-fold dilution, 37° C., 20 hours; read-out: MIC
Procedure, shortened: as §1

[6] = test system: Enterobacter cloacae ATCC 27508; assay: Antibacterial activity, MIC; type: cell-based; details: ATCC27508, ATCC 27508, agar two-fold dilution, 37° C., 20 hours, read-out: MIC
Procedure, shortened: as §1

[7] = test system: Escherichia coli ATCC 10536; assay: Antibacterial activity, MIC; type: cell-based; details: ATCC10536, agar two-fold dilution, 37° C., 20 hours
Procedure, shortened: as §1

[8] = test system: Escherichia coli ATCC 25922; assay: Antibacterial activity, MIC; type: cell-based; details: ATCC25922, agar two-fold dilution, 37° C., 20 hours
Procedure, shortened: as §1

[9] = test system: Klebsiella pneumoniae ATCC 10031; assay: Antibacterial activity, MIC; type: cell-based; details: ATCC10031, ATCC 10031, agar two-fold dilution, 37° C., 20 hours, read-out: MIC
Procedure, shortened: as §1

[10] = test system: Micrococcus luteus ATCC 9341; assay: Antibacterial activity, MIC; type: cell-based; details: ATCC9341, ATCC 9341, agar two-fold dilution, 37° C., 20 hours, read-out: MIC
Procedure, shortened: as §1

[11] = test system: Morganella morganii ATCC 8076h; assay: Antibacterial activity, MIC; type: cell-based; details: ATCC8076H, agar two-fold dilution, 37° C., 20 hours
Procedure, shortened: as §1

[12] = test system: Proteus mirabilis ATCC 25933; assay: Antibacterial activity, MIC; type: cell-based; details: ATCC25933, ATCC 25933, agar two-fold dilution, 37° C., 20 hours, read-out: MIC
Procedure, shortened: as §1

[13] = test system: Proteus vulgaris ATCC 6059; assay: Antibacterial activity, MIC; type: cell-based; details: ATCC6059, ATCC 6059, agar two-fold dilution, 37° C., 20 hours, read-out: MIC
Procedure, shortened: as §1

[14] = test system: Providencia rettgeri ATCC 9250; assay: Antibacterial activity, MIC; type: cell-based; details: ATCC9250, agar two-fold dilution, 37° C., 20 hours
Procedure, shortened: as §1

[15] = test system: Pseudomonas aeruginosa ATCC 10145; assay: Antibacterial activity, MIC; type: cell-based; details: ATCC10145, ATCC 10145, agar two-fold dilution, 37° C., 20 hours, read-out: MIC
Procedure, shortened: as §1

[16] = test system: Pseudomonas aeruginosa ATCC 25619; assay: Antibacterial activity, MIC; type: cell-based; details: ATCC25619, ATCC 25619, agar two-fold dilution, 37° C., 20 hours, read-out: MIC
Procedure, shortened: as §1

[17] = test system: Pseudomonas aeruginosa ATCC 27853; assay: Antibacterial activity, MIC; type: cell-based; details: ATCC27853, ATCC 27853, agar two-fold dilution, 37° C., 20 hours, read-out: MIC
Procedure, shortened: as §1

[18] = test system: Salmonella typhimurium ATCC 14028; assay: Antibacterial activity, MIC; type: cell-based; details: Salmonella enterica; ATCC 14028; agar two-fold dilution, 37° C., 20 hours; read-out: MIC
Procedure, shortened: as §1

[19] = test system: Serratia marcescens ATCC 27117; assay: Antibacterial activity, MIC; type: cell-based; details: ATCC27117, ATCC 27117, agar two-fold dilution, 37° C., 20 hours, read-out: MIC
Procedure, shortened: as §1

[20] = test system: Shigella flexneri ATCC 11836; assay: Antibacterial activity, MIC; type: cell-based; details: ATCC11836, agar two-fold dilution, 37° C., 20 hours
Procedure, shortened: as §1

[21] = test system: Shigella sonnei ATCC 11060; assay: Antibacterial activity, MIC; type: cell-based; details: ATCC11060, ATCC 11060, agar two-fold dilution, 37° C., 20 hours, read-out: MIC
Procedure, shortened: as §1

[22] = test system: Staphylococcus aureus ATCC 10537; assay: Antibacterial activity, MIC; type: cell-based; details: ATCC10537, ATCC 10537, agar two-fold dilution, 37° C., 20 hours, read-out: MIC
Procedure, shortened: as §1

[23] = test system: Staphylococcus aureus ATCC 6538p; assay: Antibacterial activity, MIC; type: cell-based; details: ATCC6538P, ATCC 6538p, agar two-fold dilution, 37° C., 20 hours, read-out: MIC
Procedure, shortened: as §1

[24] = test system: Staphylococcus epidermidis ATCC 12228; assay: Antibacterial activity, MIC; type: cell-based; details: ATCC12228, ATCC 12228, agar two-fold dilution, 37° C., 20 hours, read-out: MIC
Procedure, shortened: as §1

Escherichia coli = assay: Antibacterial activity against clinically isolated strains, MIC; type: cell-based; details: 38 clinical isolates, broth microdilution test
[25] = test system: Staphylococcus aureus methicillin resistant; assay: as above; type: cell-based; details: methicillin resistant, 7 clinical isolates, broth microdilution test; for MIC90: read-out: MIC 90%
[26] = In-vivo absorbency (plasma concentrations & pharmacokinetic parameters); set-up: species or system SD rat (male); details: plasma, SD male rat, iv 20 mg/kg; for concentration at 1 h: 60 min; for concentration at 1 h / concentration at 2 h: read-out: Plasma Conc.; for concentration at 2 h: 120 min; for AUC / half-life: two compartment model; for half-life: rat, iv, 20 mg/kg
From the text: The blood samples from the femoral vein of the rats were taken every hour after administration, and analyzed by bio-assay(agar well method).
Tested animal: SD male Rat (220~340 g)

Row | SMILES | MIC [1] [µg/mL] | MIC [2] [µg/mL] | MIC [3] [µg/mL] | MIC [4] [µg/mL] | MIC [5] [µg/mL] | MIC [6] [µg/mL] | MIC [7] [µg/mL] | MIC [8] [µg/mL] | MIC [9] [µg/mL] | MIC [10] [µg/mL] | MIC [11] [µg/mL] | MIC [12] [µg/mL] | MIC [13] [µg/mL] | MIC [14] [µg/mL] | MIC [15] [µg/mL] | MIC [16] [µg/mL] | MIC [17] [µg/mL] | MIC [18] [µg/mL] | MIC [19] [µg/mL] | MIC [20] [µg/mL] | further results
1 | CCO/N=C(\C(=O)NC1C(=O)N2C(C(=O)[O-])=C(CSc3nc(N)cc(N)[n+]3N)CSC12)c1csc(N)n1 (stereo not drawn) [Compound I-16] | 4 (≈ 7.06 µM) | 4 (≈ 7.06 µM) | 0.063 (≈ 0.111 µM) | 0.063 (≈ 0.111 µM) | 0.25 (≈ 0.441 µM) | 0.016 (≈ 0.0282 µM) | 0.063 (≈ 0.111 µM) | 0.063 (≈ 0.111 µM) | ≤ 0.008 | 0.016 (≈ 0.0282 µM) | ≤ 0.008 | 0.13 (≈ 0.229 µM) | 0.13 (≈ 0.229 µM) | ≤ 0.008 | 4 (≈ 7.06 µM) | 0.5 (≈ 0.882 µM) | 2 (≈ 3.53 µM) | 0.25 (≈ 0.441 µM) | 0.13 (≈ 0.229 µM) | 0.016 (≈ 0.0282 µM) | MIC [21]: 0.063 µg/mL (≈ 0.111 µM); MIC [22]: 0.25 µg/mL (≈ 0.441 µM); MIC [23]: 0.25 µg/mL (≈ 0.441 µM); MIC [24]: 0.063 µg/mL (≈ 0.111 µM); MIC50 (Escherichia coli): 0.13 µg/mL (≈ 0.229 µM); MIC90 (Escherichia coli): 0.25 µg/mL (≈ 0.441 µM); MIC50 [25]: > 32 µg/mL; MIC90 [25]: > 32 µg/mL; concentration at 1 h [26]: 8800 ng/mL; concentration at 2 h [26]: 1900 ng/mL; AUC [26]: 38400 ng·h/mL; half-life ([26]; read-out: T1/2 (α)): 4 min; half-life ([26]; read-out: T1/2 (β)): 24 min
2 | CCC[n+]1c(N)cc(N)nc1SCC1=C(C(=O)[O-])N2C(=O)C(NC(=O)/C(=N\OC(C)C(=O)O)c3csc(N)n3)C2SC1 (stereo not drawn) [Compound I-45] | 8 (≈ 12.5 µM) | 64 (≈ 100 µM) | 0.5 (≈ 0.784 µM) | 0.063 (≈ 0.0988 µM) | 1 (≈ 1.57 µM) | 0.016 (≈ 0.0251 µM) | 0.063 (≈ 0.0988 µM) | 0.063 (≈ 0.0988 µM) | 0.063 (≈ 0.0988 µM) | 0.5 (≈ 0.784 µM) | ≤ 0.008 | 0.063 (≈ 0.0988 µM) | 0.063 (≈ 0.0988 µM) | ≤ 0.008 | 4 (≈ 6.27 µM) | 1 (≈ 1.57 µM) | 2 (≈ 3.14 µM) | 0.25 (≈ 0.392 µM) | 0.13 (≈ 0.204 µM) | 0.031 (≈ 0.0486 µM) | MIC [21]: 0.063 µg/mL (≈ 0.0988 µM); MIC [22]: 2 µg/mL (≈ 3.14 µM); MIC [23]: 2 µg/mL (≈ 3.14 µM); MIC [24]: 1 µg/mL (≈ 1.57 µM); MIC50 (Escherichia coli): 0.13 µg/mL (≈ 0.204 µM); MIC90 (Escherichia coli): 0.13 µg/mL (≈ 0.204 µM); MIC50 [25]: > 128 µg/mL; MIC90 [25]: > 128 µg/mL; concentration at 1 h [26]: 11000 ng/mL; concentration at 2 h [26]: 3600 ng/mL; AUC [26]: 42900 ng·h/mL; half-life ([26]; read-out: T1/2 (α)): 4 min; half-life ([26]; read-out: T1/2 (β)): 38 min
3 | C[n+]1c(N)cc(N)nc1SCC1=C(C(=O)[O-])N2C(=O)C(NC(=O)/C(=N\OC(C)(C)C(=O)O)c3csc(N)n3)[C@H]2SC1 (stereo partly drawn) [Compound I-1, 7-[(Z)-2-(2-aminothiazol-4-yl)-2-(2-carboxyprop-2-oxyimino)acetamido]-3-(4,6-diamino-1-methylpyrimidinium-2-yl) thiomethyl-3-cephem-4-carboxylate] | 2 (≈ 3.21 µM) | 64 (≈ 103 µM) | 0.25 (≈ 0.401 µM) | 0.063 (≈ 0.101 µM) | 1 (≈ 1.6 µM) | 0.016 (≈ 0.0257 µM) | 0.063 (≈ 0.101 µM) | 0.063 (≈ 0.101 µM) | 0.063 (≈ 0.101 µM) | 0.25 (≈ 0.401 µM) | ≤ 0.008 | 0.031 (≈ 0.0497 µM) | 0.031 (≈ 0.0497 µM) | ≤ 0.008 | 2 (≈ 3.21 µM) | 1 (≈ 1.6 µM) | 1 (≈ 1.6 µM) | 0.13 (≈ 0.208 µM) | 0.063 (≈ 0.101 µM) | 0.031 (≈ 0.0497 µM) | MIC [21]: 0.031 µg/mL (≈ 0.0497 µM); MIC [22]: 1 µg/mL (≈ 1.6 µM); MIC [23]: 2 µg/mL (≈ 3.21 µM); MIC [24]: 1 µg/mL (≈ 1.6 µM); MIC50 (Escherichia coli): 0.063 µg/mL (≈ 0.101 µM); MIC90 (Escherichia coli): 0.13 µg/mL (≈ 0.208 µM); MIC50 [25]: > 128 µg/mL; MIC90 [25]: > 128 µg/mL; concentration at 1 h [26]: 7700 ng/mL; concentration at 2 h [26]: 1800 ng/mL; AUC [26]: 35300 ng·h/mL; half-life ([26]; read-out: T1/2 (α)): 3 min; half-life ([26]; read-out: T1/2 (β)): 26 min
